Reference: patent US11873298B2, “Compounds and uses thereof” (JANSSEN PHARMACEUTICA NV, priority 2017, dated 2024)

Columns and labels:
SCD1 = target: T1, SCD1 (Homo sapiens, UniProt O00767); test: Growth inhibition of humanized yeast strain expressing SCD1 as sole desaturase; type: cell-based
T1 construct: host or cells: S. cerevisiae ole1Δ strain (W303 pdr1Δ pdr3Δ background), plasmid pRS316 with TDH3 promoter and CYC1 terminator
T1 sequence (O00767 1-359): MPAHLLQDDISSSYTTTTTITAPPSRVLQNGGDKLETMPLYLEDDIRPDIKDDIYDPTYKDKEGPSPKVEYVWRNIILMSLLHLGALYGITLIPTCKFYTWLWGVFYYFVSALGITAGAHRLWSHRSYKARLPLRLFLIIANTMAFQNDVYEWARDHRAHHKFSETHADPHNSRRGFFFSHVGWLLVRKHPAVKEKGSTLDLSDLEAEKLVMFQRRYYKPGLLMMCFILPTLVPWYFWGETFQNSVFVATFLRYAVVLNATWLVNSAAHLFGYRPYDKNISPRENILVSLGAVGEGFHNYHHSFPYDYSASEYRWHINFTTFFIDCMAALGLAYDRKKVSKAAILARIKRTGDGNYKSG
Procedure, shortened: (§1)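 ole1Δ yeast (W303 pdr1Δ pdr3Δ background) carrying plasmid-borne Ole1, SCD1 or SCD5, grown in uracil-free media; cultures pre-grown in raffinose, seeded at 2× density 0.02 in galactose media with compound. Growth read as OD600 after 24 h at 30° C. for Ole1, 40 h for SCD1/SCD5.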

SCD5 = target: T2, SCD5 (Homo sapiens, UniProt Q86SK9); test: Growth inhibition of humanized yeast strain expressing SCD5 as sole desaturase; type: cell-based
T2 construct: host or cells: S. cerevisiae ole1Δ strain (W303 pdr1Δ pdr3Δ background), plasmid pRS316 with TDH3 promoter and CYC1 terminator
T2 sequence (Q86SK9 1-330): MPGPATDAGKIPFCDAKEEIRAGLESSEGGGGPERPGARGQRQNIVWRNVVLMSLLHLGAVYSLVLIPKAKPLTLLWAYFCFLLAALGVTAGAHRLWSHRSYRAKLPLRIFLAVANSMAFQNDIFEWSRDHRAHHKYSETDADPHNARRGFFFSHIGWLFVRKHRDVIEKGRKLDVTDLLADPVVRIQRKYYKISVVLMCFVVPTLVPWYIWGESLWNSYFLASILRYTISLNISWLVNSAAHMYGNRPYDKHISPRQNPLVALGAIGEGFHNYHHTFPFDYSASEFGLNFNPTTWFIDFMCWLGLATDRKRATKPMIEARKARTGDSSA
Procedure, shortened: as §1

[1] = growth inhibition of humanized yeast strain expressing human SCD1
[2] = growth inhibition of humanized yeast strain expressing human SCD5

| Compound | IC50 (SCD1; [1]) | IC50 (SCD5; [2]) | IC50 (SCD1; humanized yeast strain, 40 h) | IC50 (SCD5; humanized yeast strain, 40 h) |
| --- | --- | --- | --- | --- |
| C=C(F)/C=C/n1cc2ccc(-c3noc(C4CCN(C(=O)OC(C)(C)C)CC4)n3)cc2n1 [Compound 739] | > 45 µM | > 45 µM | – | – |
| O=C(c1nccs1)N1CCN(c2nc(-c3ccc4cnn(C5COC5)c4c3)no2)CC1 [Compound 740] | > 45 µM | 1.43 µM | – | – |
| CC(C)(C)OC(=O)N1CCC(c2nc(-c3cccc(C(=O)N4CCC4)c3)no2)CC1 [Compound 741] | > 45 µM | 7.76 µM | – | – |
| CC(C)(C)OC(=O)N1CCC(c2nc(-c3ccc4cnn(C5CC(F)(F)C5)c4c3)no2)CC1 [Compound 742] | > 45 µM | 5.05 µM | – | – |
| CC(C)n1ncc2ccc(-c3noc(N4CCC(C5COC5)CC4)n3)cc21 [Compound 743] | > 45 µM | 14.8 µM | – | – |
| CC(C)n1ncc2ccc(-c3noc(N4CCC5(CCO5)CC4)n3)cc21 [Compound 744] | > 45 µM | > 45 µM | – | – |
| CNC(=O)c1nc(-c2ccc3c(C)nn(C)c3c2)no1 [Compound 745] | > 45 µM | > 45 µM | – | – |
| CC(C)(C)OC(=O)N1CCC(c2nc(-c3ccnc(Cl)c3)no2)CC1 [Compound 747] | – | – | > 45 µM | 26.8 µM |
| COC1(C(=O)N2CCC(C)(c3nc(-c4ccc5cnn(C(C)C)c5c4)no3)CC2)CC1 [Compound 748] | – | – | > 45 µM | 2.14 µM |
| CC(C)(C)CCC(=O)N1CC(c2nc(-c3ccc4cnn(C5COC5)c4c3)no2)C1 [Compound 749] | – | – | > 45 µM | 20.8 µM |
| CC(C)(C)OC(=O)N1CCC(c2noc(-c3ccc4cnn(C5COC5)c4c3)n2)CC1 [Compound 750] | – | – | 3.25 µM | 0.01 µM |
| c1cc2cnn(C3COC3)c2cc1-c1nc(N2CCNCC2)no1 [Compound 751] | – | – | > 45 µM | > 45 µM |
| c1cc2cnn(C3COC3)c2cc1-c1nc(C2CCNCC2)no1 [Compound 752] | – | – | > 45 µM | > 45 µM |
| CC(C)(C)OC(=O)N1CCC(c2nc(-c3ccc4cnn(C5(C)COC5)c4c3)no2)CC1 [Compound 753] | – | – | > 45 µM | 0.585 µM |
| CC(C)(C)OC(=O)N1CCN(c2noc(-c3ccnc(Cl)c3)n2)CC1 [Compound 754] | – | – | > 45 µM | 16.5 µM |
| CC(C)n1ncc2ccc(-c3noc(C4CCN(C(=O)C56CCC(F)(CC5)CC6)CC4)n3)cc21 [Compound 755] | – | – | > 45 µM | 5.41 µM |
| CC(C)n1ncc2ccc(-c3noc(C4CCN(C(=O)C56CC(F)(C5)C6)CC4)n3)cc21 [Compound 756] | – | – | > 45 µM | 4.36 µM |
| CC(C)n1ncc2ccc(-c3noc(C4CCN(C(=O)C56CC(C(F)(F)F)(C5)C6)CC4)n3)cc21 [Compound 757] | – | – | > 45 µM | 4.95 µM |
| CC(C)n1ncc2ccc(-c3noc(C4CCN(C(=O)c5ncc(Cl)o5)CC4)n3)cc21 [Compound 758] | – | – | > 45 µM | 5.27 µM |

| Compound | IC50 (SCD1; [1]) | IC50 (SCD5; [2]) | IC50 (SCD1; humanized yeast strain, 40 h) | IC50 (SCD5; humanized yeast strain, 40 h) |
| --- | --- | --- | --- | --- |
| CC(C)n1nc(CCN(C)C)c2ccc(-c3noc(C4CCN(C(=O)OC(C)(C)C)CC4)n3)cc21 [Compound 759] | – | – | > 45 µM | > 45 µM |
| CC(=O)NCCc1nn(C(C)C)c2cc(-c3noc(C4CCN(C(=O)OC(C)(C)C)CC4)n3)ccc12 [Compound 760] | – | – | > 45 µM | > 45 µM |
| CC(C)n1nc(CCN)c2ccc(-c3noc(C4CCN(C(=O)OC(C)(C)C)CC4)n3)cc21 [Compound 761] | – | – | > 45 µM | > 45 µM |
| CC(C)n1ncc2ccc(-c3nc(N4CCC5(CCO5)CC4)no3)cc21 [Compound 762] | – | – | > 45 µM | 5.25 µM |
| CC(C)n1ncc2ccc(-c3noc(N4CCC(O)(CCCl)CC4)n3)cc21 [Compound 763] | – | – | 29.5 µM | 18 µM |
| CC(C)n1ncc2ccc(-c3noc(N4C[C@H]5CN(C(=O)C(C)(C)C)C[C@H]5C4)n3)cc21 [Compound 764] | – | – | > 45 µM | 16.7 µM |
| CC(C)n1ncc2ccc(-c3noc(N4CCC(C(CO)CCl)CC4)n3)cc21 (stereo not shown) [Compound 765] | – | – | 32.9 µM | 19.3 µM |
| CC(C)n1nc(CCS(C)(=O)=O)c2ccc(-c3noc(C4CCN(C(=O)OC(C)(C)C)CC4)n3)cc21 [Compound 766] | – | – | > 45 µM | > 45 µM |
| CC(C)n1nc(CCS(C)(=O)=O)c2ccc(-c3noc(C4CCN(C(=O)OC(C)(C)C)CC4)n3)cc21 [Compound 767] | – | – | > 45 µM | 0.01 µM |
| CC(C)(C)OC(=O)N1C[C@@H]2[C@H](C1)[C@H]2C(=O)NCc1ccncc1 [Compound 768] | – | – | > 45 µM | > 45 µM |
| C[C@H](NC(=O)[C@H]1[C@@H]2CN(C(=O)OC(C)(C)C)C[C@@H]21)c1ccccc1 [Compound 769] | – | – | > 45 µM | > 45 µM |
| CC(C)(C)OC(=O)N1C[C@@H]2[C@H](C1)[C@H]2C(=O)NCc1ccc(C#N)cc1 [Compound 770] | – | – | > 45 µM | > 45 µM |
| CC(C)(C)OC(=O)N1C[C@@H]2[C@H](C1)[C@H]2C(=O)NCc1ccccc1 [Compound 771] | – | – | > 45 µM | > 45 µM |
| CC(C)(C)OC(=O)N1C[C@@H]2[C@H](C1)[C@H]2C(=O)NCc1cccc(C#N)c1 [Compound 772] | – | – | > 45 µM | > 45 µM |
| CC(C)(C)OC(=O)N1C[C@@H]2[C@H](C1)[C@H]2C(=O)NCc1ccc(Cl)cc1 [Compound 773] | – | – | > 45 µM | 21.5 µM |
| CC(C)(C)OC(=O)N1C[C@@H]2[C@H](C1)[C@H]2NC(=O)OCc1ccccc1 [Compound 774] | – | – | > 45 µM | > 45 µM |
| CC(C)(C)CC(=O)N1CCC(c2nc(-c3ccc4cnn(C5CCOC5)c4c3)no2)CC1 (stereo not shown) [Compound 775] | – | – | > 45 µM | 0.022 µM |
| COC(=O)N1CCC(c2nc(-c3ccc4cnn(C5CCOC5)c4c3)no2)CC1 (stereo not shown) [Compound 776] | – | – | > 45 µM | 0.025 µM |
| CC1(OC(=O)N2CCC(c3nc(-c4ccc5cnn(C6CCOC6)c5c4)no3)CC2)CC1 (stereo not shown) [Compound 777] | – | – | 4.16 µM | 0.01 µM |

| Compound | IC50 (SCD1; [1]) | IC50 (SCD5; [2]) | IC50 (SCD1; humanized yeast strain, 40 h) | IC50 (SCD5; humanized yeast strain, 40 h) |
| --- | --- | --- | --- | --- |
| CC(C)(C)OC(=O)N1CCN(c2noc(-c3cccc(C4CCOC4)c3)n2)CC1 (stereo not shown) [Compound 778] | – | – | > 45 µM | 0.012 µM |
| CC(C)n1ncc2ccc(-c3noc(C4CCN(C(=O)C5(O)CC5)CC4)n3)cc21 [Compound 779] | – | – | > 45 µM | 15.3 µM |
| CC(C)(C)OC(=O)N1CCC(c2nsc(-c3ccc4cnn(C5COC5)c4c3)n2)CC1 [Compound 780] | – | – | > 45 µM | 0.027 µM |
| CC(C)n1nc(CO)c2ccc(-c3noc(C4CCN(C(=O)OC(C)(C)C)CC4)n3)cc21 [Compound 781] | – | – | > 45 µM | 4.8 µM |
| CC(C)(C)CC(=O)N1CCC(c2nc(-c3cccc(C4CCOC4)c3)no2)CC1 (stereo not shown) [Compound 782] | – | – | > 45 µM | 0.149 µM |
| CC(C)(C)OC(=O)N1CCC(c2nc(N3CCC34COC4)no2)CC1 [Compound 783] | – | – | > 45 µM | > 45 µM |
| CC(C)(C)OC(=O)N1CCN(c2nc(-c3ccc4cnn(C5CCOC5)c4c3)no2)CC1 (stereo not shown) [Compound 784] | – | – | 0.95 µM | 0.01 µM |
| CC(C)(C)OC(=O)N1CCN(c2noc(-c3cccc(C4CCCO4)c3)n2)CC1 (stereo not shown) [Compound 785] | – | – | 9.21 µM | 0.041 µM |
| CC(C)(C)OC(=O)N1CCC(c2nc(-c3ccc4cn(C5CC(=O)C5)nc4c3)no2)CC1 [Compound 786] | – | – | > 45 µM | > 45 µM |
| CC(C)(C)OC(=O)N1CCC(c2nc(-c3ccc4cnn(C5CC(=O)C5)c4c3)no2)CC1 [Compound 787] | – | – | 31.5 µM | 0.108 µM |
| COCC(C)(C)n1ncc2ccc(-c3noc(N4CCN(C(=O)OC(C)(C)C)CC4)n3)cc21 [Compound 788] | – | – | > 45 µM | 6.22 µM |
| CC(C)(C)OC(=O)N1CCC(c2noc(-c3cccc([C@H]4CCOC4)c3)n2)CC1 [Compound 789] | – | – | > 45 µM | 0.01 µM |
| CC(C)(C)OC(=O)N1CC=C(c2nsc(-c3ccc4cnn(C5COC5)c4c3)n2)CC1 [Compound 790] | – | – | > 45 µM | 0.053 µM |
| CC(C)(C)OC(=O)N1CCC(c2nc(-c3ccc4cnn([C@H]5CCOC5)c4c3)no2)CC1 [Compound 791] | – | – | > 45 µM | 0.01 µM |
| CC(C)(C)OC(=O)N1CCC(c2nc(-c3ccc4cnn([C@@H]5CCOC5)c4c3)no2)CC1 [Compound 792] | – | – | 8.83 µM | 0.01 µM |
| CC(C)(C)OC(=O)N1CCC(c2nc(-c3ccn4cncc4c3)no2)CC1 [Compound 793] | – | – | > 45 µM | > 45 µM |
| CC(C)(C)OC(=O)N1C[C@@H]2[C@H](C1)[C@H]2C(=O)NCc1ccc2[nH]ncc2c1 [Compound 794] | – | – | > 45 µM | > 45 µM |
| CC(C)(C)OC(=O)N1CCC(c2noc(-c3cccc([C@@H]4CCOC4)c3)n2)CC1 [Compound 795] | – | – | > 45 µM | 0.01 µM |
